According to US9657307B2, “Herbicide resistance gene and use thereof” (HANGZHOU RUIFENG BIOTECHNOLOGY LIMITED INC., priority 2010, dated 2017):

Key:
[1] = test system: transformation line N-Z1-At6; assay: Herbicide and herbicide mixture resistance of transformation line N-Z1-At6; type: in vivo, Arabidopsis thaliana; conditions: sprayed during the 4th-6th leaf stage
Source text: The resistance capability of N-Z1-At6 to other herbicides was further tested. Atrazine (90% water dispersible granule, Syngenta), Dicamba (48% aqueous formulation, Syngenta), flumiclorac-pentyl (10% emulsifiable concentrate, Sumitomo Chemical Corporation), bentazon, penoxsulam, bensulfuron and tribenuron are respectively sprayed during the 4th-6th leaf stage.
The transformation line N-Z1-At6 was further tested for the resistance to herbicide mixture.

[2] = test system: untransformed Arabidopsis thaliana seeds; assay: Germination and growth on glyphosate medium; type: in vivo; conditions: growth medium containing 0.5 mM glyphosate
Description: The seeds obtained from Arabidopsis thaliana infected by Agrobacterium were allowed to germinate and grow in Arabidopsis thaliana growth medium containing 0.5 mM glyphosate. […] However, the seeds that introduced with T-DNA can grow and develop, followed by flowering and harvesting seeds. A total of 35 individual glyphosate-resistant seedlings (T0 generation) were obtained, and the seeds thereof were harvested.

Cynodon dactylon = assay: Herbicide spray resistance determination of Cynodon dactylon; type: in vivo; conditions: observed after 10 days
Source text: (§1) Cynodon dactylon is a common weed as well as a turfgrass.

[3] = test system: control weeds including green bristlegrass, wild oats, Amaranthus retroflexus, humulus, purslane, Monochoria vaginalis, piemarker and nutgrass galingale herb; assay: Herbicide spray on control weeds; type: in vivo; conditions: observed after 10 days
Source text: as §1

[4] = test system: transgenic rice strains obtained by pCam1300-N-Z1 vector transformation; assay: Herbicide resistance of transgenic rice, pCam1300-N-Z1 vector; type: in vivo; conditions: after 10 days; for transgenic strains with slow growth / transgenic strains without any observable growth inhibition: of 10 strains; for death rate of transgenic strains: seedlings about 10 cm, 10 strains
Source text: The method for obtaining transgenic rice was implemented using existing technology (Lu Xiongbin, Gong zuxun, 1998, Life Science, 10: 125-131; Liu fan et al., 2003, Molecular Plant Breeding, 1:108-115). Ripe and plump “Xiushui 134” seeds were selected and deshelled, and the calli were induced and produced which would be used as transformation material. Agrobacterium containing target gene vectors pCam1300-N-Z1 and pCam1300-N-Z2 was taken and streaked onto a plate, and single colony was selected and inoculated to prepare Agrobacterium for transformation. The calli to be transformed were placed into Agrobacterium liquid (containing acetosyringone) with proper concentration, allowing the Agrobacterium to be conjugated to the surface of the calli, and then the calli were transferred to a coculture medium and cocultured for 2-3 days. The transformed calli were rinsed with aseptic water and transferred to a selective medium containing appropriate hygromycin, and cultured for screening for two months (subcultured one time during the period). The calli after being screened with good viability were transferred to a pre-differentiation medium and cultured for about 20 days, and then the pre-differentiated calli were transferred to a differential medium and irradiated with light for 14 hours for differentiation and sprouting. After 2-3 weeks, the regenerated plants having resistance were transferred to a rooting medium containing nicosulfuron (0.1 mg/L) for strengthening the seedling and growing roots, and then the regenerated plants were rinsed to remove agar and transferred into a greenhouse to be used as identification materials.
(§2) 10 different transgenic rice strains obtained by pCam1300-N-Z1 vector transformation and non-transgenic strains of the same variety “XiuShui 134” were selected and planted in a greenhouse (at a temperature of 15° C.-25° C.), and nicosulfuron (Yu Nongle, zhejiang Gold-Ox pesticides LTD) was sprayed at 6 mg/square meter when the seedlings have a height of about 10 cm.
(§3) 10 different transgenic rice strains obtained by pCam1300-N-Z1 vector transformation and non-transgenic strains of the same variety “XiuShui 134” were selected and planted in a greenhouse (at a temperature of 15° C.-25° C.), and mesotrione (10% mesotrione suspension, Syngenta) was sprayed at 15 mg/square meter when the seedlings have a height of about 10 cm.

[5] = test system: non-transgenic strains of the same variety "XiuShui 134"; assay: Herbicide spray on non-transgenic rice; type: in vivo; conditions: after 10 days
Description: as §2, §3
10 different transgenic rice strains obtained by pCam1300-N-Z2 vector transformation and non-transgenic strains of the same variety “XiuShui 134” were selected and planted in the greenhouse (at a temperature of 15° C.-25° C.), and nicosulfuron was sprayed at 6 mg/square meter when the seedlings have a height of about 10 cm.
10 different transgenic rice strains obtained by pCam1300-N-Z2 vector transformation and non-transgenic strains of the same variety “XiuShui 134” were selected and planted in the greenhouse (at a temperature of 15° C.-25° C.), and mesotrione was sprayed at 15 mg/square meter when the seedlings have a height of about 10 cm.

[6] = test system: transgenic rice strains obtained by pCam1300-N-Z2 vector transformation; assay: Herbicide resistance of transgenic rice, pCam1300-N-Z2 vector; type: in vivo; conditions: after 10 days, 10 strains
Source text: The method for obtaining transgenic rice was implemented using existing technology (Lu Xiongbin, Gong zuxun, 1998, Life Science, 10: 125-131; Liu fan et al., 2003, Molecular Plant Breeding, 1:108-115). Ripe and plump “Xiushui 134” seeds were selected and deshelled, and the calli were induced and produced which would be used as transformation material. Agrobacterium containing target gene vectors pCam1300-N-Z1 and pCam1300-N-Z2 was taken and streaked onto a plate, and single colony was selected and inoculated to prepare Agrobacterium for transformation. The calli to be transformed were placed into Agrobacterium liquid (containing acetosyringone) with proper concentration, allowing the Agrobacterium to be conjugated to the surface of the calli, and then the calli were transferred to a coculture medium and cocultured for 2-3 days. The transformed calli were rinsed with aseptic water and transferred to a selective medium containing appropriate hygromycin, and cultured for screening for two months (subcultured one time during the period). The calli after being screened with good viability were transferred to a pre-differentiation medium and cultured for about 20 days, and then the pre-differentiated calli were transferred to a differential medium and irradiated with light for 14 hours for differentiation and sprouting. […]

[7] = test system: transgenic Arabidopsis thaliana transformation lines (vector pCambia1300-35S/G10-35S/N-Z1); assay: Herbicide resistance of transgenic Arabidopsis thaliana, pCambia1300-35S/G10-35S/N-Z1; type: in vivo; conditions: 10 days after spraying
Source text: A total of 35 individual transformation lines were obtained using vector pCambia1300-35S/G10-35S/N-Z1. The T1 generation seedlings (obtained after the germination of T0 generation seeds) were sprayed with glyphosate diluted at 1:200 (41% aqueous solution of glyphosate isopropylamine salt, Xin'an chemical company) to remove the isolated plants without introduction of glyphosate-resistant gene. The survived plants were subjected to herbicide resistance test after growing to 4th-6th leaf stages.
(§4) Nicosulfuron resistance test: 10 plants for each line were sprayed with nicosulfuron (the dose is equal to 6 mg/square meter, the effective spraying concentration was 80 mg/L, and the product was Yu Nongle, Zhejiang Gold-Ox pesticides LTD). Non-transgenic recipient parent Arabidopsis thaliana was used as negative control. Their nicosulfuron resistance levels were evaluated 10 days after spraying nicosulfuron. […] All of the non-transgenic recipient parent Arabidopsis thaliana died.
(§5) Mesotrione resistance test: 10 plants for each line were sprayed with mesotrione (the dose is equal to 15 mg/square meter, the effective spraying concentration was 200 mg/L, and the product was 10% mesotrione suspension, Syngenta). Non-transgenic recipient parent Arabidopsis thaliana was used as negative control. Their mesotrione resistant levels were evaluated 10 days after spraying mesotrione. […] All of the non-transgenic recipient parent Arabidopsis thaliana died.
(§6) 2,4-D resistance test: 10 plants for each line were sprayed with 2,4-D (the dose was equal to 150 mg/square meter, the spraying concentration was 1.4 g/L, and the product was soluble powder of […], Haiyan boda fine chemical Co., Ltd). Non-transgenic recipient parent Arabidopsis thaliana was used as negative control. […] All of the non-transgenic recipient parent Arabidopsis thaliana died.

[8] = test system: Non-transgenic recipient parent Arabidopsis thaliana; assay: Herbicide spray on non-transgenic Arabidopsis thaliana; type: in vivo; conditions: 10 days after spraying
Description: as §4, §5, §6

[9] = mesotrione 15 mg/square meter (200 mg/L)
[10] = nicosulfuron 6 mg/square meter (80 mg/L), of 35 lines

CCCCCOC(=O)COc1cc(N2C(=O)C3=C(CCCC3)C2=O)c(F)cc1Cl [flumiclorac-pentyl]
resistance level of N-Z1-At6 compared with non-transgenic parental plants [1]: obviously improved

O=C(O)CNCP(=O)(O)O [glyphosate]
growth of untransformed seeds after germination [2]: yellowed and died

CS(=O)(=O)c1ccc(C(=O)C2C(=O)CCCC2=O)c([N+](=O)[O-])c1 [mesotrione]
death of Cynodon dactylon (Cynodon dactylon; mesotrione 1000 mg/L sprayed): no death | death of control weeds ([3]; mesotrione 1000 mg/L sprayed): died due to the occurrence of whitening | transgenic strains with slow growth ([4]; mesotrione 15 mg/square meter): 7 strains | transgenic strains without any observable growth inhibition ([4]; mesotrione 15 mg/square meter): 3 strains | death rate of transgenic strains ([4]; mesotrione 15 mg/square meter): 0% | death of non-transgenic strains ([5]; mesotrione 15 mg/square meter): died | death of transgenic strains (N-Z2) ([6]; mesotrione 15 mg/square meter): died | killed [7, 9]: 11 plants | whitening at the early stage, most recovered later [7, 9]: 18 plants | transformation lines with no obvious herbicide damage ([7]; mesotrione 15 mg/square meter (200 mg/L), of 35 lines): 6 lines | death of non-transgenic recipient parent [8, 9]: died

COc1cnc(OC)n2nc(NS(=O)(=O)c3c(OCC(F)F)cccc3C(F)(F)F)nc12 [penoxsulam]
resistance level of N-Z1-At6 compared with non-transgenic parental plants [1]: obviously improved

COc1cc(OC)nc(NC(=O)NS(=O)(=O)c2ncccc2C(=O)N(C)C)n1 [nicosulfuron]
death of Cynodon dactylon (Cynodon dactylon; nicosulfuron 400 mg/L sprayed): no death | death of control weeds ([3]; nicosulfuron 400 mg/L sprayed): killed | transgenic strains with slow growth ([4]; nicosulfuron 6 mg/square meter): 2 strains | transgenic strains without any observable growth inhibition ([4]; nicosulfuron 6 mg/square meter): 8 strains | death rate of transgenic strains ([4]; nicosulfuron 6 mg/square meter): 0% | death of non-transgenic strains ([5]; nicosulfuron 6 mg/square meter): died | death of transgenic strains (N-Z2) ([6]; nicosulfuron 6 mg/square meter): died | lines killed [7, 10]: 6 lines | lines with different degrees of growth inhibition [7, 10]: 8 lines | transformation lines with no obvious herbicide damage [7, 10]: 21 lines | death of non-transgenic recipient parent ([8]; nicosulfuron 6 mg/square meter (80 mg/L)): died

CCNc1nc(Cl)nc(NC(C)C)n1 [Atrazine]
resistance level of N-Z1-At6 compared with non-transgenic parental plants [1]: obviously improved

COc1cc(OC)nc(NC(=O)NS(=O)(=O)Cc2ccccc2C(=O)O)n1 [bensulfuron]
resistance level of N-Z1-At6 compared with non-transgenic parental plants [1]: obviously improved

COc1nc(C)nc(N(C)C(=O)NS(=O)(=O)c2ccccc2C(=O)O)n1 [tribenuron]
resistance level of N-Z1-At6 compared with non-transgenic parental plants [1]: obviously improved

CC(C)N1C(=O)c2ccccc2NS1(=O)=O [bentazon]
resistance level of N-Z1-At6 compared with non-transgenic parental plants [1]: obviously improved

COc1c(Cl)ccc(Cl)c1C(=O)O [Dicamba]
resistance level of N-Z1-At6 compared with non-transgenic parental plants [1]: obviously improved
